Data set [1] relates to platinum-resistant ovarian cancer cell line 2008-c13. Nature of the data set: Flow cytometry (propidium iodide) of apoptosis / sub-G1 fraction. The conditions noted are these: for sub-G1 fraction (hypodiploid cells): 48 hours and 72 hours of drug exposure, same doses. Format: cell-based, human. Here is the method: To determine the effectiveness of platinum-polysaccharide conjugate (PC) against platinum-resistant ovarian cancer cells, 2008-c13 cells ([…]) were treated with platinum-polysaccharide conjugate (PC). The cells were trypsinized and centrifuged at 2500 rpm for 5 min. After being washed with 1×PBS two times, cells were fixed with 70% ethanol overnight, washed twice with 1×PBS, and resuspended in 1 mL of propidium iodide (PI) solution (1×10^6 cells/mL). RNase (20 μg/mL) solution was added followed by 1 mL of propydium iodide solution (PI, 50 μg/mL in PBS). Samples were incubated at 37° C. for 15 min, and PI fluorescence was analyzed using a EPIS XL analyzer.
This effect was tested by flow cytometry in the 2008.C13 cell line after 48 hours and 72 hours of drug exposure.

Data set [2] has the same test system. Nature of the data set: TUNEL assay of apoptosis. The data set is classed as cell-based, human. Conditions: 48 hours, compared at each dose, P<0.05. From the text: DNA fragmentation typical of apoptosis was further determined by the TUNEL assay in three independent experiments.
The subject of data set [3] is PARP / caspase-3 cleavage in 2008-c13 cells. The experiment in a line: Western blot of cleaved PARP and cleaved caspase-3. Format: cell-based, human. The conditions noted are these: 48 hours; for cleaved PARP expression: 2008-c13 cells; for cleaved caspase-3 expression: 2008.C13 cells. Here is the method:
The effect of the platinum-polysaccharide conjugate of Example 1 on tumor cells was analyzed by treating 2008-c13 […] cells with the conjugate, then analyzing the effects on cellular proteins through a Western blot (FIG. 11).
To determine whether apoptosis is induced through a caspase-3-dependent pathway followed by the cleavage of PARP, levels of cleaved caspase-3 and PARP, which form after caspase-3 activation, were determined by Western blot analysis.

The subject of a further data set is 2008.C13 cells. The experiment in a line: Flow cytometric cell-cycle analysis (S-phase arrest). Conditions: 48 hours. The data set is classed as cell-based, human.
In data set [4] the test system is p21 and cyclin A in 2008.C13 cells. Nature of the data set: p21 and cyclin A expression (Northern/Western blot). The data set is classed as cell-based, human. Conditions: 48 hours of drug exposure. The method, then:
To elucidate the mechanism underlying S-phase arrest caused by CDDP and PC in 2008.C13 cells, the expression of p21 and cyclin A, which are important for cell-cycle regulation in the S phase, was examined in 2008.C13 cells after 48 hours of drug exposure.

The nature of data set [5]: In vitro determination of relaxivity (T1, 7.0 T). The data set is classed as physicochemical. The conditions noted are these: in water, Gd 0.01-0.08 mM. The method, then: Solutions of Gd-EDTA-chitosan and Gd-DTPA were prepared in water at Gd concentrations of 0.01 mM, 0.02 mM, 0.04 mM and 0.08 mM. Spin lattice (T1) relaxivity was measured at 7.0 T. R1 in mM^−1s^−1 was obtained from linear last-squares determination of the slopes of 1/T1 vs [Gd] plot. R1 was calculated as 3.61 and […] for Gd-DTPA and Gd-EDTA-chitosan, respectively.

Data set [6] has as its system platinum-resistant ovarian cancer cells (2008-c13). The method, then: All cells were cultured at 37° C. in a humidified atmosphere containing 5% CO2 in RPMI 1640 medium supplemented with 10% fetal bovine serum and glutamine (2 mM). 2008 or 2008.C13 cells were seeded into 96-well plates (4,000 cells/well) and maintained in RPMI 1640 medium for 24 hours. […] Controls were treated with DMSO or PBS. After cells were treated, their growth and viability were determined by incubating the cells for 1 to 2 hours at 37° C. with 20 μL of tetrazolium substrate. Absorbence was measured at 450 nm using a 96-well Synergy HT-microplate reader (Biotek, Winooski, Vt.) The rate of cell growth inhibition was expressed as a percentage as follows: […]. The experiments were repeated separately three times. Methylene tetrazolium (MTT) dye assay determined the amount of viable cells. Cellular protein content was determined by Lowry assay. The drug concentration that inhibits 50% of cell growth (IC-50) was then determined Data are expressed as the percentage differences compared with controls (OD of cells after treatment/OD of cells without treatment).

Data set [7] concerns breast cancer cells (13762NF) tumor. The experiment in a line: Anticancer effect in breast tumor-bearing rat model. The data set is classed as in vivo. Conditions: for tumor volume: single dose (Pt 10 mg/kg or chondroitin only). Here is the method: Female Fischer 344 rats (125-175 g) were inoculated with breast cancer cells (13762NF, 10^6 cells/rat, s.c. in the hind leg). After 15-20 days and a tumor volume of […], the breast tumor-bearing rats were administered either the platinum-chondroitin (Platinum-polysaccharide) conjugate (PC) or chondroitin alone at doses of 10 mg Pt/kg (platinum (IV)-polysaccharide) or 45 mg/kg (chondroitin). Tumor volumes and body weight were recorded daily for sixty days. Tumor volumes were measured as [length (l)×width (w)×thickness (h)]/2. Loss of body weight of 15% is considered a chemical-induced toxic effect. […] After treatment with platinum-polysaccharide conjugate, tumor tissues were dissected and embedded in […]. The tumor tissue was fixed in paraffin, and stained with hematoxylin and eosin for histological examinations.

Here are results for five compounds from US20120277409A1, “METAL-POLYSACCHARIDE CONJUGATES: COMPOSITIONS, SYNTHESIS AND METHODS FOR CANCER THERAPY” (priority 2007, published 2012).

Entries after “also recorded” stand apart in the source; their conditions may differ. Read-outs that look alike come from different tables or passages of the source.

For the compound `N.N.[Cl][Pt][Cl]` [CDDP, cis-diamminedichloroplatinum (II), reference compound], the “sub-G1 fraction (hypodiploid cells)” value in data set [1] was “dose-dependent increase”. The “apoptotic cells by TUNEL” value in data set [2] was “dose-dependent increase”. Moreover, in data set [3], the “cleaved PARP expression” value is recorded as “increased from 2.5 μg/mL to 20 μg/mL” and the “cleaved caspase-3 expression” value was “expressed in a pattern similar to that of PARP”. Further, the “maximal S-phase arrest” value in the data set on 2008.C13 cells (20 μg/mL) is 84.8%. In addition, in data set [4], the “cyclin A expression” value is “Neither p21 nor cyclin A expression was related to the extent of S-phase arrest” and the p21 expression result is listed as “Neither p21 nor cyclin A expression was related to the extent of S-phase arrest”.

On to `O=C([O-])CN(CCN(CC(=O)[O-])CC(=O)O)CCN(CC(=O)[O-])CC(=O)O.[Gd+3]` [Gd-DTPA, reference compound], for which the R1 (spin lattice T1 relaxivity) in data set [5] stood at 3.61 mM⁻¹ s⁻¹.

Take “Cis-1,2-DACH-dichloro-Pt (IV)-aspartate-chondroitin [PC]”: the “enhancement of tumor killing compared with cisplatin” value worked out at 5.9 times in data set [6] (2.5 μg/mL, 48 hours); 9.3 times in data set [6] (2.5 μg/mL, 72 hours); 4.6 times in data set [6] (5 μg/mL, 48 hours); 1.5 times in data set [6] (5 μg/mL, 72 hours). The “cell growth inhibition (in words)” value in data set [6] (low doses) was “significantly inhibit cell growth”. For the same compound, the “apoptotic effect by flow cytometry” value in data set [1] (2.5 and 5 μg/mL, compared to cisplatin) is “significantly enhanced the apoptotic effect”. In addition, the “sub-G1 fraction (hypodiploid cells)” value in data set [1] was “more pronounced increase in the sub-G1 fraction; also recorded: substantially more sub-G1 cells than did CDDP”. The “apoptotic cells by TUNEL” value in data set [2] was “many more cells experiencing apoptosis; also recorded: much higher levels of apoptosis”. In addition, in data set [7] (10 mg Pt/kg), the “effect against breast tumor growth (in words)” value is reported as “effective in vivo against breast tumor growth”. For the same compound, the tumor volume was 5.2661 cm^3 in data set [7] (24 hours) and 0.8782 cm^3 in data set [7] (94 hrs). The “tumor necrosis (H & E histology)” value in data set [7] (94 hrs post-administration) is “Extensive necrosis”. Also, in data set [3], the “cleaved PARP expression” value was “significantly increased; also recorded: cleaved PARP expression induced by high-dose (20 μg/mL) PC appeared to be lower than that induced by low-dose PC”. Besides, the “cleaved caspase-3 expression” value in data set [3] is “comparable to that in the CDDP-treated group, except for the lower expression seen at 5 μg/mL”. Also, the S-phase arrest in the data set with 2008.C13 cells (2.5 μg/mL) came to 90.3%; in the data set with 2008.C13 cells (5 μg/mL) it was 90.1%. For the same compound, the “cyclin A expression” value in data set [4] is “up-regulated after high-dose PC treatment and was maintained at a low level after low-dose PC treatment”. Moreover, in data set [4], the p21 expression entry is reported as “up-regulated with maximal S-phase arrest after low-dose PC treatment, but not after high doses; also recorded: increased p21 expression”.

Take Gd-EDTA-chitosan: the “R1 (spin lattice T1 relaxivity)” value in data set [5] was found to be 9.59 mM⁻¹ s⁻¹.

For the compound chondroitin [reference compound], the tumor volume in data set [7] (24 hours) was 5.2591 cm^3; in data set [7] (94 hrs), 14.3622 cm^3.
